Results taken from the supplement of paper PMC13380429.

What was measured:
Settings in all cases: 72 h
Caco-2 [1] = assay: cell viability relative to DMSO; higher = less toxic
Calu-3 [2] = assay: as above
HepG2 [3] = assay: as above
U2OS [4] = assay: as above
Vero E6 [5] = assay: as above
Caco-2 [6] = assay: relative viability EC50 (midpoint between 100% and the lowest measured viability); higher = less toxic
Calu-3 [7] = assay: as above
HepG2 [8] = assay: as above
U2OS [9] = assay: as above
Vero E6 [10] = assay: as above
Caco-2 [11] = assay: drug sensitivity score (DSS) for viability; higher = more toxic; extreme values may be limits of the assay
Calu-3 [12] = assay: as above
HepG2 [13] = assay: as above
U2OS [14] = assay: as above
Vero E6 [15] = assay: as above

Row | SMILES | cell viability (Caco-2 [1]; 1 nM) [%] | cell viability (Caco-2 [1]; 10 nM) [%] | cell viability (Caco-2 [1]; 100 nM) [%] | cell viability (Caco-2 [1]; 1000 nM) [%] | cell viability (Caco-2 [1]; 10000 nM) [%] | cell viability (Calu-3 [2]; 1 nM) [%] | cell viability (Calu-3 [2]; 10 nM) [%] | cell viability (Calu-3 [2]; 100 nM) [%] | cell viability (Calu-3 [2]; 1000 nM) [%] | cell viability (Calu-3 [2]; 10000 nM) [%] | cell viability (HepG2 [3]; 1 nM) [%] | cell viability (HepG2 [3]; 10 nM) [%] | cell viability (HepG2 [3]; 100 nM) [%] | cell viability (HepG2 [3]; 1000 nM) [%] | cell viability (HepG2 [3]; 10000 nM) [%] | cell viability (U2OS [4]; 1 nM) [%] | cell viability (U2OS [4]; 10 nM) [%] | cell viability (U2OS [4]; 100 nM) [%] | cell viability (U2OS [4]; 1000 nM) [%] | cell viability (U2OS [4]; 10000 nM) [%] | cell viability (Vero E6 [5]; 1 nM) [%] | cell viability (Vero E6 [5]; 10 nM) [%] | cell viability (Vero E6 [5]; 100 nM) [%] | cell viability (Vero E6 [5]; 1000 nM) [%] | cell viability (Vero E6 [5]; 10000 nM) [%] | relative viability EC50 (Caco-2 [6]) [µM] | relative viability EC50 (Calu-3 [7]) [µM] | relative viability EC50 (HepG2 [8]) [µM] | relative viability EC50 (U2OS [9]) [µM] | relative viability EC50 (Vero E6 [10]) [µM] | drug sensitivity score (Caco-2 [11]) | drug sensitivity score (Calu-3 [12]) | drug sensitivity score (HepG2 [13]) | drug sensitivity score (U2OS [14]) | drug sensitivity score (Vero E6 [15])
1 | O=C(O)CSCC(=O)NC1CCSC1=O (stereo not given) [erdosteine] | 107 | 102 | 97 | 84.8 | 96.9 | 99.8 | 96 | 102 | 92.9 | 98 | 90.5 | 102 | 94.3 | 93.8 | 102 | 100 | 105 | 96.2 | 97.9 | 101 | 111 | 96.9 | 104 | 91 | 96.8 | > 10 | > 10 | > 10 | > 10 | > 10 | 0 | 0 | 0 | 0 | 0
2 | O=C(NCc1ccccn1)Nc1nnc(-c2ccco2)o1 [NK-252] | 103 | 94.6 | 103 | 91.5 | 80.7 | 104 | 99.9 | 94.2 | 103 | 107 | 104 | 97.4 | 90.4 | 77.2 | 30.6 | 103 | 101 | 105 | 99.3 | 103 | 94.5 | 104 | 104 | 103 | 101 | > 10 | > 10 | 1.47 | > 10 | > 10 | 1.4 | 0 | 6.5 | 0 | 0
3 | Cc1nn(C)c2c1C(c1cccc(Cl)c1)=NCCN2 [zometapine] | 95.7 | 86.7 | 82.4 | 117 | 105 | 102 | 104 | 99.8 | 101 | 98.2 | 93.3 | 105 | 99.9 | 106 | 89 | 95.6 | 105 | 98.4 | 102 | 96.9 | 104 | 105 | 98 | 97.8 | 95.1 | > 10 | > 10 | > 10 | > 10 | > 10 | 0 | 0 | 0 | 0 | 0
